Measured values: patent publication US7943646B2, “Benzamidine derivative, process for the preparation thereof and pharmaceutical composition comprising same” (Dong Wha Pharmaceutical Co., Ltd., priority 2006, dated 2011)
Where two headings read alike, the source gives them in different places.

Columns and labels:
[1] = system: osteoclast differentiation; test: Inhibitory effect on osteoclast differentiation, co-culture of bone marrow cells and osteoblast, TRAP staining; type: cell-based, mouse; conditions: for inhibition at 1 µM: Mus musculus, Osteoclast, 168 h, read-out: inhibitory effect on osteoclast differentiation(%)
Description: The effect of the benzamidine derivative of the present invention on osteoclast formation and differentiation process was evaluated via co-culture with an osteoblast.
Tibia was aseptically ectomized from male 6 to 8-week-old ddY mice to harvest bone marrow cells by using a syringe (21G, Korea Green Cross). The bone marrow cells were suspended in 5 mL of an α-MEM medium (Gibco BRL Co., added with sodium bicarbonate (2.0 g/L), streptomycin (100 mg/L) and penicillin ([…]), filtered and then sterilized). The harvested cells were centrifuged at 600×g for 5 mins to collect the whole quantity. To remove the red blood cells in the bone marrow cells, 3 mL of Tris HCl (0.83% NH4Cl, pH 7.5) was added and well mixed. After centrifuging above cells, the numbers of the eukaryotic cells in the harvested bone marrow cells were counted and then immediately used for a co-culture system.
The progenitor bone and the parietal bone were aseptically ectomized from 1 to 2-day-old neonate ICR mice, washed with a phosphate butter solution (PBS) and treated with a mixed enzyme solution (of 0.2% collagenase and 0.1% dispase) sequentially (10, 10, 10, 20, 20 and 20 min), and then 3 to 6 groups of the cells which comprise lot of cells having the characteristics of the osteoblast were intensively collected and washed with a medium (a serum-free α-MEM). The washed cells were cultured in the α-MEM medium containing 10% FBS for 2 to 3 days. After subculturing, the collected cells were used for this experiment, and diluted to a concentration of 1×10^6 cells/mL for storage at −70[…].
The benzamidine derivative of the present invention was dissolved in a sterile distilled water or ethanol to dilute to a desired concentration. The final volume of the sample added to the cell culture medium was set at a ratio of 1:1000.
The bone marrow cells prepared in the above 1-1 and the osteoblast were co-cultured for osteoclast differentiation. Both the bone marrow cells (25,000 cells/cm^2) and the osteoblast (10,000 cells/cm^2) were plated in a 96-well plate using α-MEM medium containing FBS, and then cultured with the samples to be tested for 7 days. Differentiation factors, such as dexamethasone (10^−7 M) and vitamin D3 (10^−8 M), were also co-added to the medium from the first day of cultivation. The medium was changed with a fresh media containing a mixture of the samples and the differentiation factors every 2 to 3 days.
TRAP was used as a marker to measure the matured osteoclast in consideration of its characteristics showing a positive reaction to a TRAP staining solution. The TRAP staining solution was prepared in such the manner that 5 mg of naphtol AS-MS phosphate (sigma N-4875) as a substrate, and 25 mg of a coloring agent (Fast Red Violet LB salt) were dissolved in N,N-dimethylformamide (about 0.5 mL). 50 ml of a 0.1 N NaHCO3 buffer solution containing 50 mM tartaric acid (pH 5.0) was added thereto, and the mixture was stored at a refrigerator prior to use as a staining solution.
After culturing the cells for 7 days, the medium was removed from the wells, the cells were once washed with PBS, and then fixed with PBS containing 10% formalin for 2 to 5 min. The cells were fixed again in a mixed solution of ethanol and acetone (1/1) for about 1 min, and dried off. The cells were further treated by the TRAP staining solution for 15 mins and washed with water and dried off. The osteoclasts with 3 or more nuclei showing a TRAP-positive reaction were counted under a microscopic examination. Each of tests was confirmed over at least three times. The inhibitory effect on osteoclast differentiation of each experimental group, relative to negative controls, was expressed as a percentage (%).

MC3T3 = test: Cytotoxicity test (MTT), MC3T3; type: cell-based; conditions: 10^−6M, 72 hrs, in comparison with the control group
Description: (§1) The cytotoxic effect of the benzamidine derivative of the present invention was evaluated by carrying out the experiment described below.
(§2) The test substance was diluted in an appropriate solvent at a 10^−2 M concentration. This substance was diluted in an appropriate culture medium for the cells used in the cytotoxicity test to a concentration of […], and loaded into a 96-well plate in 100 μl per well. The cell lines to be used in the cytotoxicity test were plated on a 96-well plate in a dose of 1.0×10^4 cells/1OO μl per well and cultured for 72 hrs. 25 μl of MTT [3-(4,5-dimethyl-2-thiazolyl)-2,5-diphenyl-2H-tetrazolium bromide] dissolved in PBS (2 mg/mL) were added before 4 hrs of the end of culture. After completion of the reaction, the plates were centrifuged, the medium was discarded and 100 μl of DMSO was added to dissolve formazan. Finally, the absorbance of the developed plates was measured at 540 nm. The survival rates of the cells were expressed as % concentration values in comparison with the control group.

calvaria = test: Cytotoxicity test (MTT), calvaria; type: cell-based; conditions: 10^−6M, 72 hrs, in comparison with the control group
Description: as §1, §2

HOS = test: Cytotoxicity test (MTT), HOS; type: cell-based; conditions: 10^−6M, 72 hrs, in comparison with the control group
Description: as §1, §2

[2] = 1 μm, 7 days co-culture, TRAP-positive osteoclasts with 3 or more nuclei, relative to negative controls

Compound | survival rates of the cells (MC3T3) [%] | survival rates of the cells (calvaria) [%] | survival rates of the cells (HOS) [%] | inhibition at 1 µM [1, 2] [%] | other results
CC(C)c1nc(-c2ccc(OCCCCCOc3ccc(C(=N)NO)cc3)cc2)c(CCN2CCSCC2)s1 [Example 32, N-hydroxy-4-(5-{4-[2-isopropyl-5-(2-thiomorpholin-4-yl-ethyl)-thiazol-4-yl]-phenoxy}-pentyloxy)-benzamidine] |  |  |  |  | inhibition at 1 µM [1]: 97%
CN1CCN(CCc2sc(C3CCCCC3)nc2-c2ccc(OCCCCCOc3ccc(C(=N)NO)cc3)cc2)CC1 [Example 34, N-hydroxy-4-[5-(4-{2-cyclohexyl-5-[2-(4-methyl-piperazin-1-yl)-ethyl]-thiazol-4-yl}-phenoxy)-pentyloxy]-benzamidine] |  |  |  |  | inhibition at 1 µM [1]: 100%
N=C(NO)c1ccc(OCCCCCOc2ccc(-c3nc(C4CCCCC4)sc3CCNCCN3CCOCC3)cc2)cc1 [Example 35, N-hydroxy-4-[5-(4-{2-cyclohexyl-5-[2-(2-morpholin-4-yl-ethylamino)-ethyl]-thiazol-4-yl}-phenoxy)-pentyloxy]-benzamidine] | 98.6 | 81.6 | 115.7 |  | inhibition at 1 µM [1]: 100%
Cc1nc(-c2ccc(OCCCCOc3ccc(C(=N)NO)cc3)cc2)c(CCN2CCOCC2)s1 [Example 44, N-hydroxy-4-(4-{4-[2-methyl-5-(2-morpholin-4-yl-ethyl)-thiazol-4-yl]-phenoxy}-butoxy)-benzamidine] | 101.3 | 90.6 | 105.6 |  | 
N=C(N)c1ccc(OCCCCCOc2ccc(-c3nc(C4CCCCC4)sc3CCN3CCOCC3)cc2)cc1 [Example 45, 4-(5-{4-[2-cyclohexyl-5-(2-morpholin-4-yl-ethyl)-thiazol-4-yl]-phenoxy}-pentyloxy)-benzamidine] | 108.2 | 90.5 | 106.9 |  | 
CNc1nc(-c2ccc(OCCCCCOc3ccc(C(=N)NO)cc3)cc2)c(CCN2CCN(C)CC2)s1 [Example 48, N-hydroxy-4-[5-(4-{2-methylamino-5-[2-(4-methyl-piperazin-1-yl)-ethyl]-thiazol-4-yl}-phenoxy)-pentyloxy]-benzamidine] |  |  |  | 60.6 | 
CNc1nc(-c2ccc(OCCCCCOc3ccc(C(=N)NO)cc3)cc2)c(CCN2CCSCC2)s1 [Example 49, N-hydroxy-4-(5-{4-[2-methylamino-5-(2-thiomorpholin-4-yl-ethyl)-thiazol-4-yl]-phenoxy}-pentyloxy)-benzamidine] |  |  |  | 84 | 
CNc1nc(-c2ccc(OCCCCCOc3ccc(C(=N)N)cc3)cc2)c(CCN2CCOCC2)s1 [Example 52, 4-(5-{4-[2-methylamino-5-(2-morpholin-4-yl-ethyl)-thiazol-4-yl]-phenoxy}-pentyloxy)-benzamidine] | 115.6 | 100.1 | 98.8 |  | 
CN(C)c1nc(-c2ccc(OCCCCCOc3ccc(C(=N)NO)cc3)cc2)c(CCN2CCSCC2)s1 [Example 54, N-hydroxy-4-(5-{4-[2-dimethylamino-5-(2-thiomorpholin-4-yl-ethyl)-thiazol-4-yl]-phenoxy}-pentyloxy)-benzamidine] |  |  |  | 88 | 
CC(C)C(=O)N(C)c1nc(-c2ccc(OCCCCCOc3ccc(C(=N)NO)cc3)cc2)c(CCN2CCOCC2)s1 [Example 55, N-hydroxy-4-(5-{4-[2-(isobutyryl-methyl-amino)-5-(2-morpholin-4-yl-ethyl)-thiazol-4-yl]-phenoxy}-pentyloxy)-benzamidine] |  |  |  | 69 | 
N=C(NO)c1ccc(OCCCCCOc2ccc(-c3nc(N4CCOCC4)sc3CCN3CCSCC3)cc2)cc1 [Example 60, N-hydroxy-4-(5-{4-[2-morpholin-4-yl-5-(2-thiomorpholin-4-yl-ethyl)-thiazol-4-yl]-phenoxy}-pentyloxy)-benzamidine] |  |  |  | 88 | 
CN1CCN(CCc2sc(N3CCOCC3)nc2-c2ccc(OCCCCCOc3ccc(C(=N)NO)cc3)cc2)CC1 [Example 61, N-hydroxy-4-[5-(4-{5-[2-(4-methyl-piperazin-1-yl)-ethyl]-2-morpholin-4-yl-thiazol-4-yl}-phenoxy)-pentyloxy]-benzamidine] |  |  |  | 76 | 
N=C(N)c1ccc(OCCCCCOc2ccc(-c3nc(N4CCOCC4)sc3CCN3CCOCC3)cc2)cc1 [Example 64, 4-(5-{4-[2-morpholin-4-yl-5-(2-morpholin-4-yl-ethyl)-thiazol-4-yl]-phenoxy}-pentyloxy)-benzamidine] | 119.8 | 99.4 | 107.8 |  | 
Cc1nc(-c2ccc(OCCCCCOc3ccc(C(=N)NO)cc3)cc2)c(CCN(CC(C)C)C(=O)c2cccnc2)s1 [Example 66, N-hydroxy-4-{5-[4-(5-{2-[isobutyl-(pyridine-3-carbonyl)-amino]-ethyl}-2-methyl-thiazol-4-yl)-phenoxy]-pentyloxy}-benzamidine] | 111.1 | 99.0 | 105.9 |  | 
CC(C)c1nc(-c2ccc(OCCCCCOc3ccc(C(=N)NO)cc3)cc2)c(CCN(C(=O)c2ccncc2)C2CC2)s1 [Example 67, N-hydroxy-4-{5-[4-(5-{2-[cyclopropyl-(pyridine-4-carbonyl)-amino]-ethyl}-2-isopropyl-thiazol-4-yl)-phenoxy]-pentyloxy}-benzamidine] | 80.7 | 95.3 | 97.5 |  | 
N=C(NO)c1ccc(OCCCCCOc2ccc(-c3nc(C4CCCCC4)sc3CCN(C(=O)c3cccnc3)C3CC3)cc2)cc1 [Example 68, N-hydroxy-4-{5-[4-(2-cyclohexyl-5-{2-[cyclopropyl-(pyridine-3-carbonyl)-amino]ethyl}-thiazol-4-yl)-phenoxy]-pentyloxy}-benzamidine] | 90.3 | 91.4 | 82.9 |  | 
CNC(=O)c1sc(C)nc1-c1ccc(OCCCCCOc2ccc(C(=N)NO)cc2)cc1 [Example 69] |  |  |  |  | inhibitory effect on osteoclast differentiation(%) [1, 2]: 90.3%
Cc1nc(-c2ccc(OCCCCCOc3ccc(C(=N)NO)cc3)cc2)c(C(=O)NC(C)C)s1 [Example 70, N-hydroxy-4-{5-[4-(5-isopropylcarbamoyl-2-methyl-thiazol-4-yl)-phenoxy]-pentyloxy}-benzamidine] |  |  |  | 84.8 | 
Cc1nc(-c2ccc(OCCCCCOc3ccc(C(=N)NO)cc3)cc2)c(C(=O)NCCCn2ccnc2)s1 [Example 71, N-hydroxy-4-{5-[4-(5-{3-imidazol-1-yl-propylcarbamoyl}-2-methyl-thiazol-4-yl)-phenoxy]-pentyloxy}-benzamidine] |  |  |  | 90.4 | 
N-hydroxy-(5-{4-[5-(2-isobutyrylamino-ethyl)-2-methyl-thiazol-4-yl]-phenoxy}-pentyloxy)-benzamidine [Example 65] |  |  |  |  | inhibitory effect on osteoclast differentiation(%) [1, 2]: 29%
